These results are taken from PubChem BioAssay AID1259407 (Chemical Carcinogenesis Research Information System (CCRIS), 2018).

Calls of active or inactive are those of the source. The rule behind the calls is not given here.

In the data set the test system is CCRIS mutagenicity, Ames/micronucleus/aberration tests. As to the kind of experiment: CCRIS mutagenicity studies.
Where [1] appears, read: Test System: AMES SALMONELLA TYPHIMURIUM, Strain/Indicator: TA98, Metabolic Activation: NONE, Method: STANDARD PLATE.
[2] abbreviates: Test System: AMES SALMONELLA TYPHIMURIUM, Strain/Indicator: TA100, Metabolic Activation: NONE, Method: STANDARD PLATE.
[3] abbreviates: Test System: AMES SALMONELLA TYPHIMURIUM, Strain/Indicator: TA98, Metabolic Activation: NONE, Method: PREINCUBATION
The mark [4] stands for this setting: Test System: AMES SALMONELLA TYPHIMURIUM, Strain/Indicator: TA100, Metabolic Activation: NONE, Method: PREINCUBATION

Consider `O=C/C(=C(\Cl)C(=O)O)C(Cl)Cl`, for which the mutagenic call (Test System: AMES SALMONELLA TYPHIMURIUM, Strain/Indicator: TA97, Metabolic Activation: NONE, Method: STANDARD PLATE) is “inactive; negative”; the mutagenic call (Test System: AMES SALMONELLA TYPHIMURIUM, Strain/Indicator: TA97, Metabolic Activation: RAT, LIVER, S-9, PHENOBARBITAL, Method: STANDARD PLATE) was “inactive; negative”; the mutagenic call under setting [1] is “inactive; negative”; the mutagenic call (Test System: AMES SALMONELLA TYPHIMURIUM, Strain/Indicator: TA98, Metabolic Activation: RAT, LIVER, S-9, PHENOBARBITAL, Method: STANDARD PLATE) was “inactive; negative”; the mutagenic call under setting [2] was “active; positive”; the mutagenic call (Test System: AMES SALMONELLA TYPHIMURIUM, Strain/Indicator: TA100, Metabolic Activation: RAT, LIVER, S-9, PHENOBARBITAL, Method: STANDARD PLATE) is “inactive; negative”.
Turning to `O=S(=O)(O)c1ccc(N=Nc2c(O)ccc3ccccc23)cc1`, the mutagenic call (Test System: AMES SALMONELLA TYPHIMURIUM, Strain/Indicator: TA98, Metabolic Activation: HAMSTER, LIVER, S-9, Method: PREINCUBATION (PRIVAL METHOD)) is “inactive; negative”; the mutagenic call under setting [3] is “inactive; negative”; the mutagenic call under setting [1] was “inactive; negative”; the mutagenic call (Test System: AMES SALMONELLA TYPHIMURIUM, Strain/Indicator: TA98, Metabolic Activation: RAT LIVER S-9, AROCLOR 1254, Method: STANDARD PLATE) was “inactive; negative”; the mutagenic call (Test System: AMES SALMONELLA TYPHIMURIUM, Strain/Indicator: TA98, Metabolic Activation: RAT, LIVER, S-9, PHENOBARBITAL, Method: PREINCUBATION) is “inactive; negative”; the mutagenic call under setting [4] was “inactive; negative”. The mutagenic call is “inactive; negative” under setting [2]; “inactive; negative” (Test System: AMES SALMONELLA TYPHIMURIUM, Strain/Indicator: TA100, Metabolic Activation: RAT LIVER S-9, AROCLOR 1254, Method: STANDARD PLATE); “inactive; negative” (Test System: AMES SALMONELLA TYPHIMURIUM, Strain/Indicator: TA100, Metabolic Activation: RAT, LIVER, S-9, PHENOBARBITAL, Method: PREINCUBATION).
As for `CC(=O)OC/C=C(C)/C=C/C=C(C)/C=C/C1=C(C)CCCC1(C)C`, the mutagenic call is “inactive; negative” (Test System: AMES SALMONELLA TYPHIMURIUM, Strain/Indicator: TA97A, Metabolic Activation: NONE, Method: PREINCUBATION); “inactive; negative” (Test System: AMES SALMONELLA TYPHIMURIUM, Strain/Indicator: TA97A, Metabolic Activation: RAT, LIVER, S-9, AROCLOR 1254, Method: PREINCUBATION); “inactive; negative” (Test System: AMES SALMONELLA TYPHIMURIUM, Strain/Indicator: TA102, Metabolic Activation: NONE, Method: PREINCUBATION); “inactive; negative” (Test System: AMES SALMONELLA TYPHIMURIUM, Strain/Indicator: TA102, Metabolic Activation: RAT, LIVER, S-9, AROCLOR 1254, Method: PREINCUBATION).
`CC(=O)Nc1ccc(Oc2ccc(N(OC(C)=O)C(C)=O)cc2)cc1`: the mutagenic call (Test System: AMES SALMONELLA TYPHIMURIUM, Strain/Indicator: TA98(1,8-DNP6), Metabolic Activation: NONE, Method: PREINCUBATION) is “active; positive”; the mutagenic call (Test System: AMES SALMONELLA TYPHIMURIUM, Strain/Indicator: TA98(1,8-DNP6), Metabolic Activation: RAT, LIVER, S-9, AROCLOR 1254, Method: PREINCUBATION) is “active; positive”; the mutagenic call (Test System: AMES SALMONELLA TYPHIMURIUM, Strain/Indicator: TA98(NR), Metabolic Activation: NONE, Method: PREINCUBATION) was “active; positive”; the mutagenic call (Test System: AMES SALMONELLA TYPHIMURIUM, Strain/Indicator: TA98(NR), Metabolic Activation: RAT, LIVER, S-9, AROCLOR 1254, Method: PREINCUBATION) was “active; positive”; the mutagenic call under setting [3] was “active; positive”; the mutagenic call (Test System: AMES SALMONELLA TYPHIMURIUM, Strain/Indicator: TA98, Metabolic Activation: RAT, LIVER, S-9, AROCLOR 1254, Method: PREINCUBATION) was “active; positive”. For the same molecule, the mutagenic call (Test System: AMES SALMONELLA TYPHIMURIUM, Strain/Indicator: TA100(NR), Metabolic Activation: NONE, Method: PREINCUBATION) is “active; positive”; the mutagenic call (Test System: AMES SALMONELLA TYPHIMURIUM, Strain/Indicator: TA100(NR), Metabolic Activation: RAT, LIVER, S-9, AROCLOR 1254, Method: PREINCUBATION) is “active; positive”; the mutagenic call under setting [4] was “active; positive”; the mutagenic call (Test System: AMES SALMONELLA TYPHIMURIUM, Strain/Indicator: TA100, Metabolic Activation: RAT, LIVER, S-9, AROCLOR 1254, Method: PREINCUBATION) is “active; positive”.
On to `OC1=C2O[C@@H]2CC[C@H]1O`, for which, for the setting “Test System: CHINESE HAMSTER V-79, Strain/Indicator: V-79/6-THIOGUANINE, Metabolic Activation: NONE”, the mutagenic call is “active; positive”.
